Experiment [1] has as its system chloroquine-sensitive Plasmodium falciparum strain 3D7. As to the kind of experiment: Malstat assay, chloroquine-sensitive strain 3D7. Format: cell-based. The following applies: for IC50 / IC90: Plasmodium falciparum; for IC50: read-out: P. falciparum 3D7 IC50; for IC90: read-out: P. falciparum 3D7 IC90. The procedure:
(§1) The chloroquine-sensitive Plasmodium falciparum strain 3D7 and the chloroquine-resistant strain Dd2 were cultivated in vitro at 5% hematocrit in complete medium comprising RPMI 1640/HEPES medium supplemented with 0.5% w/w Albumax II, 10 µg/mL gentamicin, and 50 µg/mL hypoxanthine. Cultures were maintained at 37 °C in an atmosphere of 5% CO2, 5% O2, and 90% N2. To enrich parasites in the ring-stage, an asexual blood stage culture was synchronized. The culture was centrifuged at 1000× g for 3 min, and the supernatant was discarded. The cell pellet was resuspended in 5% sorbitol and incubated at room temperature for 10 min. Subsequently, the culture was centrifuged, and the pellet was washed with RPMI 1640/HEPES medium. After a final centrifugation step, the cell pellet was resuspended in fresh complete medium and returned to standard culture conditions for further cultivation. Human serum and erythrocyte concentrate were obtained from the Department of Transfusion Medicine, University Hospital Aachen, Germany. Donor sera and blood samples were pooled and kept anonymous. The work with human blood was approved by the Ethics Commission of the RWTH University Hospital (EK 007/13).
(§2) Synchronized ring-stage cultures of the P. falciparum strains 3D7 and Dd2 mixed with the compound were plated in triplicate into 96-well plates (200 µL/well) at a parasitemia of 1%. […] In addition, a dilution series with chloroquine with concentrations between 500 nM and 4 nM was used as a positive control and 0.5% v/v DMSO was used as a negative control. The cultures were then incubated under standard culture conditions for 72 h. Following incubation, 20 µL of the culture was transferred in triplicate to a new 96-well plate and mixed with 100 µL of Malstat reagent (0.1% v/v Triton X-100, 1 g L-lactate, 0.33 g Tris and 33 mg of 3-acetylpyridine adenine dinucleotide in 100 mL distilled water, pH 9.0) and 20 µL mixture of NBT and diaphorase (1:1 v/v; 1 mg/mL stock each). After colour development in the wells, absorbance was measured at OD630nm using a Tecan Plate Reader. The IC50 and IC90 values of the compounds were then determined using the GraphPad Prism software.

In experiment [2] the test system is chloroquine-resistant P. falciparum strain Dd2. Kind of experiment: Malstat assay, chloroquine-resistant strain Dd2. Particulars: for RI, resistance index = IC50 (Dd2)/IC50 (3D7): Dd2 vs 3D7; for IC50 / IC90: Plasmodium falciparum; for IC50: read-out: IC50 P. falciparum Dd2; for IC90: read-out: IC90 P. falciparum Dd2. The class given is cell-based, Plasmodium falciparum. As to the method: as §1, §2

For experiment [3], the system named is Human umbilical vein endothelial cells (HUVECs). As to the kind of experiment: Cytotoxicity assay (CellTiter-Blue cell viability assay). The class given is cell-based. Particulars: HUVEC, 72 h. The procedure:
Human umbilical vein endothelial cells (HUVECs) were purchased from Promocell (Heidelberg, Germany) and cultivated with ECGM Kit enhanced (PELO Biotech, Planegg, Germany) supplemented with 10% (FCS) (PAA Laboratories, Cölbe, Germany) and 1% penicillin/streptomycin/amphotericin B (all purchased from PAN Biotech). Cells were cultured at 37 °C with 5% CO2 with constant humidity. Cell proliferation was assessed using the CellTiter-Blue cell viability assay (Promega, Madison, WI, USA). Cells were treated as indicated for 72 h and 4 h before termination CellTiter-Blue reagent was added in a ratio of 1:10. Fluorescence intensity was determined by using the SpectraFluor Plus plate reader (Tecan, Männedorf, Switzerland) at 550 nm excitation and 595 nm emission wavelength. Fluorescence intensity is proportional to the cell number. Non-linear regression was carried out using the log(inhibitor) vs. response–variable slope (four parameters) function of GraphPad Prism (San Diego, CA, USA).
Figure 4 Cytotoxic effects of cassiarin A (5) and analogs 11b, 11c, and 11d on proliferation of HUVEC assessed by CellTiter-Blue^TM assay. IC50 values were determined using the log(inhibitor) vs. response—variable slope (four parameters) function of GraphPad Prism (10.4.0). Data are shown as mean ± SD.
A general note: Resazurin is reduced to fluorescent resorufin, in cell work by metabolically active cells.

Experiment [4] has the same test system. The following applies: cited from earlier work.
Setting [5] is: chloroquine-sensitive strain 3D7, Malstat assay, 72 h.
[6] abbreviates: chloroquine-resistant strain Dd2, Malstat assay, 72 h.

The values that follow come from publication PMC12299140, “Synthetic Analogs of the Alkaloid Cassiarin A with Enhanced Antimalarial Activity” (Pharmaceuticals, 2025).

Each structure is given as a SMILES string. Where two headings read alike, the source gives them in different places.

A word on the IC50: it is the midpoint of a concentration-inhibition curve. The IC90 is the concentration at which the effect reaches the 90% level. As to `COc1cc2c3c(nc(C)cc3c1)C=C(c1ccc(OCCO)cc1)O2` [Compound 18b, 2-(4-(8-Methoxy-5-methylpyrano[2,3,4-ij]isoquinolin-2-yl)phenoxy)ethan-1-ol], in experiment [1] (setting [5]), the IC50 came out at 2200 ± 580 nM and the IC90 stood at 3200 ± 680 nM.
Turning to `C#CCOc1cc2c3c(nc(C)cc3c1)C=C(c1ccccc1)O2` [Compound 24, 5-Methyl-2-phenyl-8-(prop-2-in-1-yloxy)pyrano[2,3,4-ij]isoquinoline], in experiment [1] (setting [5]), the IC50 is at least 100000 nM and the IC90 was at least 100000 nM. The “antiplasmodial activity (in words)” value in experiment [1] (strain 3D7, Malstat assay) was “complete loss of antiplasmodial activity”.
`CC1=Cc2nc(C)cc3cc(O)cc(c23)O1` [Compound 5, Cassiarin A]: the IC50 was 9600 ± 630 nM in experiment [1] (setting [5]), 13600 ± 3950 nM in experiment [2] (setting [6]) and 16400 nM in experiment [3]. The IC90 in experiment [1] (setting [5]) came to 16400 ± 3070 nM; in experiment [2] (setting [6]), 20500 ± 11900 nM. Also, the “RI, resistance index = IC50 (Dd2)/IC50 (3D7)” value (“RI, resistance index = IC50” below) in experiment [2] stood at 1.4.
Consider `COC(=O)c1ccc(C2=Cc3nc(C)cc4cc(O)cc(c34)O2)cc1` [Compound 18c, Methyl 4-(8-hydroxy-5-methylpyrano[2,3,4-ij]isoquinolin-2-yl)benzoate], for which the figures for the IC50 in experiment [1] (setting [5]) and in experiment [2] (setting [6]) were 200 ± 50 nM and 400 ± 210 nM, respectively. Further, the IC90 stood at 400 ± 140 nM in experiment [1] (setting [5]) and 800 ± 580 nM in experiment [2] (setting [6]). In addition, the “RI, resistance index = IC50” value in experiment [2] came to 2.0.
With `Cc1cc2cc(O)cc3c2c(n1)C=C(c1ccc(O)cc1)O3` [Compound 11g, 2-(4-Hydroxyphenyl)-5-methylpyrano[2,3,4-ij]isoquinolin-8-ol], in experiment [1] (setting [5]), the IC50 turned out to be 400 ± 30 nM and the IC90 worked out at 900 ± 540 nM. For the same compound, the “RI, resistance index = IC50” value in experiment [2] is 4.8. Further, in experiment [2] (setting [6]), the IC50 is 1900 ± 1010 nM and the IC90 amounted to 5900 ± 3420 nM.
For the compound `OCc1cc2cc(O)cc3c2c(n1)C=C(c1ccccc1)O3` [Compound 11e, 5-(Hydroxymethyl)-2-phenylpyrano[2,3,4-ij]isoquinolin-8-ol], in experiment [1] (setting [5]), the IC50 stood at 2100 ± 380 nM and the IC90 is 2700 ± 220 nM.
On to `NCc1cc2cc(O)cc3c2c(n1)C=C(c1ccccc1)O3` [Compound 11d, 5-(Aminomethyl)-2-phenylpyrano[2,3,4-ij]isoquinolin-8-ol], for which the IC50 in experiment [1] (setting [5]) came out at 600 ± 110 nM; in experiment [2] (setting [6]) it was 1200 ± 320 nM; in experiment [3], 680 nM. Moreover, the results for the IC90 in experiment [1] (setting [5]) and in experiment [2] (setting [6]) were 1000 ± 280 nM and 1800 ± 170 nM, respectively. The “RI, resistance index = IC50” value in experiment [2] was 2.0.
Take `OCCc1cc2cc(O)cc3c2c(n1)C=C(c1ccccc1)O3` [Compound 11f, 5-(2-Hydroxyethyl)-2-phenylpyrano[2,3,4-ij]isoquinolin-8-ol]: in experiment [1] (setting [5]), the IC50 was found to be 1700 ± 200 nM and the IC90 worked out at 3400 ± 1280 nM.
Take `Oc1cc2c3c(nc(-c4ccccc4)cc3c1)C=C(c1ccccc1)O2` [Compound 11b, 2,5-Diphenylpyrano[2,3,4-ij]isoquinolin-8-ol]: in experiment [1] (setting [5]), the IC50 is 2000 ± 180 nM and the IC90 came to 2900 ± 530 nM. This compound had an IC50 in experiment [3] of 2220 nM.
Turning to `CCCCC1=Cc2nc(C)cc3cc(O)cc(c23)O1` [Compound 18a, 2-Butyl-5-methylpyrano[2,3,4-ij]isoquinolin-8-ol], in experiment [1] (setting [5]), the IC50 turned out to be 1900 ± 190 nM and the IC90 was found to be 2500 ± 490 nM.
Consider `CCN(CC)CCCC(C)Nc1ccnc2cc(Cl)ccc12` (centres unmarked) [Compound 2, chloroquine, reference compound], for which, in experiment [1] (3D7, 72 h), the IC50 was 30 ± 10 nM and the IC90 turned out to be 50 ± 10 nM. Also, the “RI, resistance index = IC50” value in experiment [2] is recorded as 5.3. Also, in experiment [2] (DD2, 72 h), the IC50 turned out to be 160 ± 40 nM and the IC90 came out at 230 ± 130 nM. For the same compound, in experiment [4], the “selectivity index (=IC50 (HUVEC)/IC50 (3D7))” value was 1987.
Consider `Cc1cc2cc(O)cc3c2c(n1)C=C(c1ccccc1)O3` [Compound 11c, 5-Methyl-2-phenylpyrano[2,3,4-ij]isoquinolin-8-ol], for which the IC50 was 400 ± 40 nM in experiment [1] (setting [5]), 1700 ± 740 nM in experiment [2] (setting [6]) and 1230 nM in experiment [3]. The IC90 in experiment [1] (setting [5]) was determined as 500 ± 110 nM; in experiment [2] (setting [6]) it was 2100 ± 1080 nM. Besides, in experiment [2], the “RI, resistance index = IC50” value is reported as 4.3.
`CC1=Cc2nc(CN)cc3cc(O)cc(c23)O1` [Compound 11a, 5-(Aminomethyl)-2-methylpyrano[2,3,4-ij]isoquinolin-8-ol]: in experiment [1] (setting [5]), the IC50 came to 31900 ± 11500 nM and the IC90 came to 53300 ± 10500 nM.
